In publication doi:10.1101/2021.09.30.462449v1 (biorxiv, 2021):
pIC50: −log10 of the molar value.

Columns and labels:
MLCK (MLCK2) = MLCK (MLCK2) (Homo sapiens, UniProt Q32MK0); assay: biochemical; details: read-out: % inhibition mean (Lanthascreen)
CAMK1 (CaMK1) = CAMK1 (CaMK1) (Homo sapiens, UniProt Q14012); assay: Adapta universal kinase assay; type: biochemical
MELK = MELK (Homo sapiens, UniProt Q14680); assay: ThermoFisher kinase profiling; type: biochemical; details: read-out: % inhibition at 1 μM
AMPK (A1/B2/G1) = AMPK (A1/B2/G1) (Homo sapiens, UniProt Q13131); assay: biochemical; details: read-out: % inhibition mean (Lanthascreen)
Chain of AMPK (A1/B2/G1) (Q13131 whole entry): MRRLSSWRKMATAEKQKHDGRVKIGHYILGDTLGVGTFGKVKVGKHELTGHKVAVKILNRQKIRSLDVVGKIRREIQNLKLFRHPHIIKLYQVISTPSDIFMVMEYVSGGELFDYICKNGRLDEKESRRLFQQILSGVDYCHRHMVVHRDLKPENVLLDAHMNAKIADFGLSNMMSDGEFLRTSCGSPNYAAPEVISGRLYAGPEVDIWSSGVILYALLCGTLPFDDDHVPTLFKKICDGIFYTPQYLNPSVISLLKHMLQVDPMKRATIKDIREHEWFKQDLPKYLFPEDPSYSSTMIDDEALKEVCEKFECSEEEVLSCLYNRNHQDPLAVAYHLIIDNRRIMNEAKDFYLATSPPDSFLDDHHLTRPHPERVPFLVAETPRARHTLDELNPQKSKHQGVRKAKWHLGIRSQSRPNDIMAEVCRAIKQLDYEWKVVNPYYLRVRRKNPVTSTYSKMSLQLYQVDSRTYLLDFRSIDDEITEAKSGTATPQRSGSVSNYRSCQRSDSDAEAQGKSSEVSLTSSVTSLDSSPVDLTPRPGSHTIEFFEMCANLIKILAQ
Chain of AMPK (A1/B2/G1) (O43741 whole entry partner): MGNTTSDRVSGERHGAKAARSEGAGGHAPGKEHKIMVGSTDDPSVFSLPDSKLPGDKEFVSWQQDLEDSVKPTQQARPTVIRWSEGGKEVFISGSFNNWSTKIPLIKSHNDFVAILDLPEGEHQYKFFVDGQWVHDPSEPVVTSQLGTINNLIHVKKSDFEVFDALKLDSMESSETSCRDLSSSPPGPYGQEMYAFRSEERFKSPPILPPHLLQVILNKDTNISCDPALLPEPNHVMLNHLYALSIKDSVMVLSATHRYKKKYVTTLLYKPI
Chain of AMPK (A1/B2/G1) (P54619 whole entry partner): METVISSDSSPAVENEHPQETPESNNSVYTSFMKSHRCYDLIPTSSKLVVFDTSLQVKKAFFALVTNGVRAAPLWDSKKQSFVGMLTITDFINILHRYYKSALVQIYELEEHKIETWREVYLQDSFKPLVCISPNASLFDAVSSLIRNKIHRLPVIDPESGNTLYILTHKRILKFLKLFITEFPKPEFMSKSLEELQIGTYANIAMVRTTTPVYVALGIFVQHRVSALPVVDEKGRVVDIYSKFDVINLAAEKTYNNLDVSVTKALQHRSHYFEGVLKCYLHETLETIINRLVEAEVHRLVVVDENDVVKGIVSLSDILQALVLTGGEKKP

KIT N822K = KIT N822K (Homo sapiens, UniProt P10721, N822K); assay: biochemical; details: read-out: % inhibition mean (Lanthascreen)
RET G691S = RET G691S (Homo sapiens, UniProt P07949, G691S); assay: biochemical; details: read-out: % inhibition mean (Lanthascreen)
MLK4 = MLK4 (Homo sapiens, UniProt Q5TCX8); assay: biochemical; details: read-out: % inhibition mean (Lanthascreen)
MAP3K10 (MLK2) = MAP3K10 (MLK2) (Homo sapiens, UniProt Q02779); assay: biochemical; details: read-out: % inhibition mean (Lanthascreen)
Chain of MAP3K10 (MLK2) (Q02779 whole entry): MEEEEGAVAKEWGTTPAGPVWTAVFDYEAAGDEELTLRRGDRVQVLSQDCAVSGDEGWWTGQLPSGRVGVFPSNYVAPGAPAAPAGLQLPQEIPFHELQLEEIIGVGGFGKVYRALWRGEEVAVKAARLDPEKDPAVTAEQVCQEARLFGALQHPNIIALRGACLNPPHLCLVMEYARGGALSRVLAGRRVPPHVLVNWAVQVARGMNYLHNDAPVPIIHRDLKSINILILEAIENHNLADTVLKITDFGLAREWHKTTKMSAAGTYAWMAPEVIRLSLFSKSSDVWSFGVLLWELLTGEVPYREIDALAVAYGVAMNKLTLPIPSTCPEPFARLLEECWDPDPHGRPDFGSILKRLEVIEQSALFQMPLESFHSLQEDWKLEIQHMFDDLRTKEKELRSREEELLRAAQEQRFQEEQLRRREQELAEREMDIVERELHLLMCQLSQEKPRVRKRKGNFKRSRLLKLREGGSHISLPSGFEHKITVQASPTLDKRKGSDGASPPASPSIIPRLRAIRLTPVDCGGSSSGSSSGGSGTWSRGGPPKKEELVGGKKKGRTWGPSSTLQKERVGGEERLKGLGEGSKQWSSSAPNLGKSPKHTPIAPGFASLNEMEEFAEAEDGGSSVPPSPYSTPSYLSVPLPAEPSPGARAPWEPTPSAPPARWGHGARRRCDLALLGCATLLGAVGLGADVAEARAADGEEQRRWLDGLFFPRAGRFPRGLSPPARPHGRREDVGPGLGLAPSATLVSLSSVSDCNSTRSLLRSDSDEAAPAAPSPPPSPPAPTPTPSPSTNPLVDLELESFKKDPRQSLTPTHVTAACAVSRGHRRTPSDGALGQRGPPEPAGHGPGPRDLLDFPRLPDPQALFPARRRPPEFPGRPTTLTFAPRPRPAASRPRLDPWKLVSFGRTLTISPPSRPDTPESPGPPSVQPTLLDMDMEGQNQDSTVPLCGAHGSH

ACVR1 (ALK2) R206H = ACVR1 (ALK2) R206H (Homo sapiens, UniProt Q04771, R206H); assay: biochemical; details: read-out: % inhibition mean (Lanthascreen)
TEK (TIE2) R849W = TEK (TIE2) R849W (Homo sapiens, UniProt Q02763, R849W); assay: biochemical; details: read-out: % inhibition mean (Lanthascreen)
MAPK9 (JNK2) = MAPK9 (JNK2) (Homo sapiens, UniProt P45984); assay: biochemical; details: read-out: % inhibition mean (Lanthascreen)
Chain of MAPK9 (JNK2) (P45984 whole entry): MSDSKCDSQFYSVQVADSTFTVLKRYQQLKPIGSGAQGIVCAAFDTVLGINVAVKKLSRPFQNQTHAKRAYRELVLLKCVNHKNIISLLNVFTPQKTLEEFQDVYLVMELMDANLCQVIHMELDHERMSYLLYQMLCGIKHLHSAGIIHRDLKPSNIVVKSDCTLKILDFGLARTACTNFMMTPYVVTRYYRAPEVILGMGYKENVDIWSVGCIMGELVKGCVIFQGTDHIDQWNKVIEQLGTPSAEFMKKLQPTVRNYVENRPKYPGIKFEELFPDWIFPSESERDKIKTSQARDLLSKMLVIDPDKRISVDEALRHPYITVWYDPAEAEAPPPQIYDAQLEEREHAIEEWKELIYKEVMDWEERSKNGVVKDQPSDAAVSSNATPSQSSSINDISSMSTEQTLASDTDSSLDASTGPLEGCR

DDR2 N456S = DDR2 N456S (Homo sapiens, UniProt Q16832, N456S); assay: biochemical; details: read-out: % inhibition mean (Lanthascreen)
FGFR3 K650M = FGFR3 K650M (Homo sapiens, UniProt P22607, K650M); assay: biochemical; details: read-out: % inhibition mean (Lanthascreen)
Chain of FGFR3 K650M (P22607 whole entry K650M): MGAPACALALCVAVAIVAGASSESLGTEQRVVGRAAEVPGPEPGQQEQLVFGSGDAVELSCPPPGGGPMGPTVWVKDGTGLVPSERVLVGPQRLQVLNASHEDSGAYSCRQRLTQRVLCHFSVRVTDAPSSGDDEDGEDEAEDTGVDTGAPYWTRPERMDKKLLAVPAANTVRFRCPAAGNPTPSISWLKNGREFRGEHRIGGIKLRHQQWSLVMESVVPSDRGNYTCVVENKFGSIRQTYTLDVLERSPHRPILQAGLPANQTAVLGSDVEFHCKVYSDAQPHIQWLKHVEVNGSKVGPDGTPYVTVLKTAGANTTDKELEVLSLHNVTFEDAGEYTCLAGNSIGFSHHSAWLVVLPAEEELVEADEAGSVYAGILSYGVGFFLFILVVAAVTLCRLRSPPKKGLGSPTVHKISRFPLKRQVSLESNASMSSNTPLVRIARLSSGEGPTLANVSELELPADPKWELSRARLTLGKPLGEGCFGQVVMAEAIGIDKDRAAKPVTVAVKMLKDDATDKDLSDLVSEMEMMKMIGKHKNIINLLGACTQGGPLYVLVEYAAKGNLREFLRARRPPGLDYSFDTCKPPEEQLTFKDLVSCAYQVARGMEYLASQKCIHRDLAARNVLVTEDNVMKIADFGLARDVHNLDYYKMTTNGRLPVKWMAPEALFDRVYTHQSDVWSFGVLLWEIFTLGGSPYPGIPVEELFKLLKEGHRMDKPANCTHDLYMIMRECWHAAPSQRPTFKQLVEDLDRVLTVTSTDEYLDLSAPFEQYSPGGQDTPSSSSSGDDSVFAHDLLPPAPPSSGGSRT

NLK = NLK (Homo sapiens, UniProt Q9UBE8); assay: biochemical; details: read-out: % inhibition mean (Lanthascreen)
TTK = TTK (Homo sapiens, UniProt P33981); assay: biochemical; details: read-out: % inhibition mean (Lanthascreen)
SLK = SLK (Homo sapiens, UniProt Q9H2G2); assay: biochemical; details: read-out: % inhibition mean (Lanthascreen)
MAPK10 (JNK3) = MAPK10 (JNK3) (Homo sapiens, UniProt P53779); assay: biochemical; details: read-out: % inhibition mean (Lanthascreen)
MAP3K14 (NIK) = MAP3K14 (NIK) (Homo sapiens, UniProt Q99558); assay: biochemical; details: read-out: % inhibition mean (Lanthascreen)
Chain of MAP3K14 (NIK) (Q99558 whole entry): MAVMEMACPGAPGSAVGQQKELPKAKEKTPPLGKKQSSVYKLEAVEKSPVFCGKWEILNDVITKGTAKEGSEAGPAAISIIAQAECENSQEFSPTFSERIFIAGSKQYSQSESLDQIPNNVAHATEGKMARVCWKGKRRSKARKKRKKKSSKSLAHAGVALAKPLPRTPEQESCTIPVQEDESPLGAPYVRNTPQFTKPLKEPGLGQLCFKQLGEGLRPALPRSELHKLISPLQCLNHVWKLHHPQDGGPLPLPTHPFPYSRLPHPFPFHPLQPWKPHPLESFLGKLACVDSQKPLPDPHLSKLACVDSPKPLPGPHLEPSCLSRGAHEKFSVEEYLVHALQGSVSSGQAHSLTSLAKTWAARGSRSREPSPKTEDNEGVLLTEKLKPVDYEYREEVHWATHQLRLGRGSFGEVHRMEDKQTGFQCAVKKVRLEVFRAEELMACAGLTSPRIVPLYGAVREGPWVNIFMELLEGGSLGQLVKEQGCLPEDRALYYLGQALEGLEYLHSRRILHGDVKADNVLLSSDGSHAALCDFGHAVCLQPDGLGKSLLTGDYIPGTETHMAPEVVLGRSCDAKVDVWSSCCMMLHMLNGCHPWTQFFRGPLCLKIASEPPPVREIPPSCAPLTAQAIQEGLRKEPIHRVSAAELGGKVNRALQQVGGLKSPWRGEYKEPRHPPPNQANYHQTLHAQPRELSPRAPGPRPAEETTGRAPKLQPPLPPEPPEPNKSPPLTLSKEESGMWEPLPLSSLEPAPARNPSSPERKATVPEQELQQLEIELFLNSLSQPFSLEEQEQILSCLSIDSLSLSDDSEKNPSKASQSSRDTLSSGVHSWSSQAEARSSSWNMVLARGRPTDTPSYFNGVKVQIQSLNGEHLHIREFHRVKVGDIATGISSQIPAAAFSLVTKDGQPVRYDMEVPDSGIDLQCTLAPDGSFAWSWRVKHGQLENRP

MET D1228H = MET D1228H (Homo sapiens, UniProt P08581, D1228H); assay: biochemical; details: read-out: % inhibition mean (Lanthascreen)
PLK4 = PLK4 (Homo sapiens, UniProt O00444); assay: biochemical; details: read-out: % inhibition mean (Lanthascreen)
CDK14 (PFTK1)/cyclin Y = CDK14 (PFTK1)/cyclin Y (Homo sapiens, UniProt O94921); assay: biochemical; details: read-out: % inhibition mean (Lanthascreen)
FGFR3 G697C = FGFR3 G697C (Homo sapiens, UniProt P22607, G697C); assay: biochemical; details: read-out: % inhibition mean (Lanthascreen)
Chain of FGFR3 G697C (P22607 whole entry G697C): as the sequence (P22607 whole entry K650M) above, with M650K, G697C counted along it

Chain of CAMK1 (CaMK1) (Q14012 whole entry): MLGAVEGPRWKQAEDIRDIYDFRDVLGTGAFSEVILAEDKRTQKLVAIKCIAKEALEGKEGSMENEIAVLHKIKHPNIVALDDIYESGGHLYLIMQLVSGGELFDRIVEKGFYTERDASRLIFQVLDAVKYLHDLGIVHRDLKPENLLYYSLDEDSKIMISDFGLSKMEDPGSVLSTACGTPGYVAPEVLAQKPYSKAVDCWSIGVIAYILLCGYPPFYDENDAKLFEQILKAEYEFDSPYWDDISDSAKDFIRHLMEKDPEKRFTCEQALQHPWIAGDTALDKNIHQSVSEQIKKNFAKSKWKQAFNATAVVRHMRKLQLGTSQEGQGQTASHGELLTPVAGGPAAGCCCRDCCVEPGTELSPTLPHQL

Q: Which results are given for `COc1ccc2nc3cc(Cl)ccc3c(Nc3cc(CN4CCCC4)c(O)c(CN4CCCC4)c3)c2n1` [Pyronaridine, 4-[(7-Chloro-2-methoxybenzo[b][1,5]naphthyridin-10-yl)amino]-2,6-bis(1-pyrrolidinylmethyl)phenol phosphate (1:4)]?
A: inhibition at 1 µM (MLCK (MLCK2)): -6%; pIC50 (CAMK1 (CaMK1)): 5.62; inhibition at 1 µM (MELK): 31%; inhibition at 1 µM (AMPK (A1/B2/G1)): -2%; inhibition at 1 µM (KIT N822K): 14%; inhibition at 1 µM (RET G691S): -3%; inhibition at 1 µM (MLK4): 8%; inhibition at 1 µM (MAP3K10 (MLK2)): 0%; inhibition at 1 µM (ACVR1 (ALK2) R206H): 2%; inhibition at 1 µM (TEK (TIE2) R849W): -3%; inhibition at 1 µM (MAPK9 (JNK2)): 6%; inhibition at 1 µM (DDR2 N456S): 17%; inhibition at 1 µM (FGFR3 K650M): -4%; inhibition at 1 µM (NLK): 8%; inhibition at 1 µM (TTK): 4%; inhibition at 1 µM (SLK): -1%; inhibition at 1 µM (MAPK10 (JNK3)): 5%; inhibition at 1 µM (MAP3K14 (NIK)): 2%; inhibition at 1 µM (MET D1228H): 3%; inhibition at 1 µM (PLK4): 6%; inhibition at 1 µM (CDK14 (PFTK1)/cyclin Y): 14%; inhibition at 1 µM (FGFR3 G697C): 7%
